From patent US11479563B2, “Biphenyl compound or salt thereof” (TAIHO PHARMACEUTICAL CO., LTD., priority 2017, dated 2022) come the findings set out here.

Assay [1] deals with NCI-H146 cells (human small-cell lung cancer cell lines). Nature of the assay: Cell-growth inhibition test: NCI-H146 cells. In kind it is cell-based. The settings on record: Homo sapiens, NCI-H146, read-out: Cell-Growth Inhibition Test: NCI-H146 Cells IC50 (nM). The method, then:
Under the following conditions, an in vitro cell-growth inhibition test was performed with respect to HEL cells (human acute myelocytic leukemia cell lines), NCI-H1417 cells (human small-cell lung cancer cell lines), and NCI-H146 cells (human small-cell lung cancer cell lines).
The cells with the compound of the present invention or with dimethylsulfoxide alone were cultured at 37° C. in a 5% carbon-dioxide-containing incubator for 5 days (HEL cells) or 10 days (NCI-H1417 cells and NCI-H146 cells). After culture, the plate was allowed to stand at room temperature for 30 minutes, and 100 μL of the supernatant was removed from each well to leave 100 μL of the cell culture solution. To each well containing the remaining 100 μL of the cell culture solution, the same amount of CellTiter-Glo 2.0 Assay (Promega, Cat #: G9242) was added. The microplate was shaken with a plate mixer for 1 minute and then allowed to stand in a dark place for 10 minutes. Thereafter, the luminescence intensity of viable cells in each well was measured using a microplate reader (PerkinElmer, EnSpire). […] Cell growth rate (%)=T/C×100 T: The luminescence intensity in a well to which the compound of the present invention was added (count per second) C: The luminescence intensity in a well to which dimethylsulfoxide alone was added (count per second)

Assay [2] relates to HEL cells (human acute myelocytic leukemia cell lines). Description: cells. The settings on record: read-out: Cell-Growth Inhibition Test: HEL Cells IC50 (nM).
The test system of assay [3] is NCI-H1417 cells (human small-cell lung cancer cell lines). Nature of the assay: cells. The settings on record: NCI-H1417, read-out: Cell-Growth Inhibition Test: NCI-H1417 Cells IC50 (nM).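 Further: growth of NCI-H1417 cells over 10 days at 37 °C, read as viable-cell luminescence by CellTiter-Glo 2.0, expressed as % of DMSO-only control wells.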

Counter-ions that a name gives are not always drawn.

One may read the IC50 as the concentration needed to halve the response being measured. `N#Cc1ccc(-c2cc(C(=O)N3[C@@H]4CC[C@H]3C[C@@H](N)C4)ccc2-c2cc3nnn(CC4(O)CCC4)c3c(C(F)F)c2F)cc1F` [Example 262, 5′-((3-endo)-3-amino-8-azabicyclo[3.2.1]octane-8-carbonyl)-2′-(7-(difluoromethyl)-6-fluoro-1-((1-hydroxycyclobutyl)methyl)-1H-benzo[d][1,2,3]triazol-5-yl)-3-fluoro-[1,1′-biphenyl]-4-carbonitrile]: the IC50 came to 3.1 nM in assay [1] and 0.93 nM in assay [2].
`CC(C)(O)Cn1nnc2cc(-c3ccc(C(=O)N4C5CCC4C(N)C5)cc3-c3ccc(C#N)c(F)c3)c(F)c(Br)c21` [Example 273, 5′-((1S,2S,4R)-rel-2-amino-7-azabicyclo[2.2.1]heptane-7-carbonyl)-2′-(7-bromo-6-fluoro-1-(2-hydroxy-2-methylpropyl)-1H-benzo[d][1,2,3]triazol-5-yl)-3-fluoro-[1,1′-biphenyl]-4-carbonitrile-isomer-X]: the IC50 in assay [1] stood at 0.63 nM; in assay [2] it was 0.27 nM.
For the compound `CC(C)(O)Cn1ncc2cc(-c3ccc(CN4C5CCC4C(N)C5)cc3-c3ccc(C#N)c(F)c3)c(F)cc21` [Example 287, 5′-(((1S,2S,4R)-rel-2-amino-7-azabicyclo[2.2.1]heptan-7-yl)methyl)-3-fluoro-2′-(6-fluoro-1-(2-hydroxy-2-methylpropyl)-1H-indazol-5-yl)-[1,1′-biphenyl]-4-carbonitrile-isomer-X dihydrochloride], the IC50 in assay [3] worked out at 0.1 nM; in assay [1] it was 0.2 nM.
`CC(C)(O)Cn1nnc2cc(-c3ccc(C(=O)N4[C@@H]5CC[C@H]4C[C@@H](N)C5)cc3-c3ccc(C#N)c(F)c3)c(F)c(Br)c21` [Example 275, 5′-((3-endo)-3-amino-8-azabicyclo[3.2.1]octane-8-carbonyl)-2′-(7-bromo-6-fluoro-1-(2-hydroxy-2-methylpropyl)-1H-benzo[d][1,2,3]triazol-5-yl)-3-fluoro-[1,1′-biphenyl]-4-carbonitrile]: the IC50 amounted to 0.59 nM in assay [3], 1.78 nM in assay [1] and 0.99 nM in assay [2].
Take `N#Cc1ccc(-c2cc(C(=O)N3[C@@H]4CC[C@H]3C[C@@H](N)C4)ccc2-c2cc3nnn(CC4(O)CCC4)c3c(C#N)c2F)cc1F` [Example 266, 5-(5-((3-endo)-3-amino-8-azabicyclo[3.2.1]octane-8-carbonyl)-4′-cyano-3′-fluoro-[1,1′-biphenyl]-2-yl)-6-fluoro-1-((1-hydroxycyclobutyl)methyl)-1H-benzo[d][1,2,3]triazole-7-carbonitrile]: the IC50 in assay [3] stood at 1.85 nM; in assay [1] it was 17.5 nM; in assay [2], 4.63 nM.
For the compound `CC(C)(O)Cn1nnc2cc(-c3ccc(C(=O)N4[C@@H]5CC[C@H]4C[C@@H](N)C5)cc3-c3ccc(C#N)c(F)c3)c(F)c(F)c21` [Example 161], the IC50 in assay [3] was 2.49 nM; in assay [1] it was 1.09 nM; in assay [2], 6.88 nM.
The matching figures for `CC(C)(O)Cc1ccc(-c2ccc(CN3CC[C@H](N)C3)cc2-c2ccc(C#N)c(F)c2)c(F)c1` [Example 291, (S)-5′-((3-aminopyrrolidin-1-yl)methyl)-2″,3-difluoro-4″-(2-hydroxy-2-methylpropyl)-[1,1′:2′,1″-terphenyl]-4-carbonitrile dihydrochloride]: 4.65 nM, 10.4 nM and 1.21 nM.
As to `CC(C)(O)Cn1nnc2cc(-c3ccc(C(=O)N4C5CCC4C(N)C5)cc3-c3ccc(C#N)c(F)c3)c(F)c(C#N)c21` [Example 247, 5-(5-((1S,2S,4R)-rel-2-amino-7-azabicyclo[2.2.1]heptane-7-carbonyl)-4′-cyano-3′-fluoro-[1,1′-biphenyl]-2-yl)-6-fluoro-1-(2-hydroxy-2-methylpropyl)-1H-benzo[d][1,2,3]triazole-7-carbonitrile-isomer-X], the IC50 in assay [3] was determined as 1.4 nM; in assay [1] it was 3.84 nM; in assay [2], 3.02 nM.
The corresponding values for `CCC(O)(CC)Cn1nnc2cc(-c3ccc(CN4C5CCC4C(N)C5)cc3-c3ccc(C#N)c(F)c3)c(F)c(F)c21` [Example 293, 5′-(((1S,2S,4R)-rel-2-amino-7-azabicyclo[2.2.1]heptan-7-yl)methyl)-2′-(1-(2-ethyl-2-hydroxybutyl)-6,7-difluoro-1H-benzo[d][1,2,3]triazol-5-yl)-3-fluoro-[1,1′-biphenyl]-4-carbonitrile-isomer-X dihydrochloride] are 0.22 nM, 0.08 nM and 0.081 nM.
Turning to `N#Cc1ccc(-c2cc(C(=O)N3C4CCC3C(N)C4)ccc2-c2cc3nnn(CC4(O)CCC4)c3c(Cl)c2F)cc1F` [Example 257, 5′-((1S,2S,4R)-rel-2-amino-7-azabicyclo[2.2.1]heptane-7-carbonyl)-2′-(7-chloro-6-fluoro-1-((1-hydroxycyclobutyl)methyl)-1H-benzo[d][1,2,3]triazol-5-yl)-3-fluoro-[1,1′-biphenyl]-4-carbonitrile-isomer-X], the IC50 came out at 0.39 nM in assay [1] and 0.13 nM in assay [2].
Take `CC(C)(O)Cn1nnc2cc(-c3ccc(C(=O)N4[C@@H]5CC[C@H]4C[C@@H](N)C5)cc3-c3ccc(C#N)c(F)c3)c(F)c(C#N)c21` [Example 251, 5-(5-((3-endo)-3-amino-8-azabicyclo[3.2.1]octane-8-carbonyl)-4′-cyano-3′-fluoro-[1,1′-biphenyl]-2-yl)-6-fluoro-1-(2-hydroxy-2-methylpropyl)-1H-benzo[d][1,2,3]triazole-7-carbonitrile]: the IC50 in assay [3] was 2.7 nM; in assay [1] it was 13.2 nM; in assay [2] it was 23.9 nM.
Regarding `CC(C)(O)Cc1ccc(-c2ccc(CN3C4CCC3C(N)C4)cc2-c2ccc(C#N)c(F)c2)c(F)c1` [Example 290, 5′-(((1S,2S,4R)-rel-2-amino-7-azabicyclo[2.2.1]heptan-7-yl)methyl)-2″,3-difluoro-4″-(2-hydroxy-2-methylpropyl)-[1,1′:2′,1″-terphenyl]-4-carbonitrile-isomer-X dihydrochloride], the IC50 in assay [3] turned out to be 1.06 nM; in assay [1], 2.12 nM.
Turning to `CCC(O)(CC)Cn1nnc2cc(-c3ccc(C(=O)N4C5CCC4C(N)C5)cc3-c3ccc(C#N)c(F)c3)c(F)c(Cl)c21` [Example 218, 5′-((1S,2S,4R)-rel-2-amino-7-azabicyclo[2.2.1]heptane-7-carbonyl)-2′-(7-chloro-1-(2-ethyl-2-hydroxybutyl)-6-fluoro-1H-benzo[d][1,2,3]triazol-5-yl)-3-fluoro-[1,1′-biphenyl]-4-carbonitrile-isomer-X], the IC50 in assay [3] was determined as 0.21 nM; in assay [1] it was 0.33 nM; in assay [2] it was 0.22 nM.
The corresponding values for `CCC(O)(CC)Cn1ncc2cc(-c3ccc(C(=O)N4[C@@H]5CC[C@H]4C[C@@H](N)C5)cc3-c3ccc(C#N)c(F)c3)c(F)cc21` [Example 205, 5′-((3-endo)-3-amino-8-azabicyclo[3.2.1]octane-8-carbonyl)-2′-(1-(2-ethyl-2-hydroxybutyl)-6-fluoro-1H-indazol-5-yl)-3-fluoro-[1,1′-biphenyl]-4-carbonitrile] are 6.25 nM, 15.1 nM and 4.95 nM.
`CC(C)(O)Cn1nnc2cc(-c3ccc(CN4C5CCC4C(N)C5)cc3-c3ccc(C#N)c(F)c3)c(F)c(F)c21` [Example 285, 5′-(((1S,2S,4R)-rel-2-amino-7-azabicyclo[2.2.1]heptan-7-yl)methyl)-2′-(6,7-difluoro-1-(2-hydroxy-2-methylpropyl)-1H-benzo[d][1,2,3]triazol-5-yl)-3-fluoro-[1,1′-biphenyl]-4-carbonitrile-isomer-X dihydrochloride]: the IC50 came to 0.09 nM in assay [3], 0.49 nM in assay [1] and 0.046 nM in assay [2].
For the compound `Cn1nnc2cc(-c3ccc(C(=O)N4[C@@H]5CC[C@H]4C[C@H](N)C5)cc3-c3ccc(C#N)c(F)c3)c(F)cc21` [Example 109], the results for the IC50 in assay [3] and in assay [2] were 1.81 nM and 15.1 nM, respectively.
With `CN(C)c1ccc(-c2ccc(C(=O)N3[C@@H]4CC[C@H]3C[C@@H](N)C4)cc2-c2ccc(C#N)c(F)c2)cn1` [Example 131], the IC50 in assay [3] worked out at 30.9 nM; in assay [2] it was 15.2 nM.
Regarding `CCn1nnc2cc(-c3ccc(C(=O)N4[C@@H]5CC[C@H]4C[C@@H](N)C5)cc3-c3ccc(C#N)c(F)c3)c(F)cc21` [Example 160], the IC50 in assay [3] worked out at 9.2 nM; in assay [2], 7.03 nM.
As to `CCCn1nnc2cc(-c3ccc(C(=O)N4[C@@H]5CC[C@H]4C[C@@H](N)C5)cc3-c3ccc(C#N)c(F)c3)c(F)cc21` [Example 168], the IC50 in assay [3] is 7.29 nM; in assay [2], 5.29 nM.
Regarding `CC(C)(O)Cn1nc(Br)c2cc(-c3ccc(C(=O)N4[C@@H]5CC[C@H]4C[C@@H](N)C5)cc3-c3ccc(C#N)c(F)c3)c(F)cc21` [Example 178, 5′-((3-endo)-3-amino-8-azabicyclo[3.2.1]octane-8-carbonyl)-2′-(3-bromo-6-fluoro-1-(2-hydroxy-2-methylpropyl)-1H-indazol-5-yl)-3-fluoro-[1,1′-biphenyl]-4-carbonitrile], the IC50 in assay [3] was determined as 3.03 nM; in assay [2] it was 3.57 nM.
